We go through 15 compounds from patent US4975434A, “Antiviral and anticancer cyclopentenyl cytosine” (priority 1989, dated 1990).

In brackets after ≈: the same amount, converted by molar mass. Several values for one entry are separate records, joined by “and”; a condition that tells them apart may be missing. Equal entries are not always repeated. Where two headings read alike, the source gives them in different places.

The test system of data set [1] is tumors. The data set is described as follows: Antitumor activity (general statement).
The test system of data set [2] is Vesicular Stomatitis virus, strain Indiana. The class given is cell-based. Conditions: L929 cells, strain Indiana; two determinations.
Data set [3] has as its system enzyme which hydrolyzes S-adenosyl-L-homocysteine (AdoHcy). Conditions: literature; cited from earlier work.
Data set [4] concerns phosphorylation and deamination. Conditions: cited from earlier work.
A further data set concerns CTP synthesase. Put plainly: Inhibition of CTP synthesis (CTP synthesase). The class given is biochemical.
Data set [5] relates to L1210 leukemia. Put plainly: In vivo antitumor test, L1210 leukemia in mice. Conditions: Table IV, QD1-9, terminated day 60.
The test system of a further data set is LOX Melanoma. The data set is described as follows: Human tumor xenograft in athymic mice, LOX melanoma (intraperitoneal). To be noted: for % ILS: Table IV, QD1-9. On the technique in general: A xenograft is tissue or cells of one species grown in another, often human tumour cells in immunodeficient mice.
A further data set relates to MX-1 Mammary. Put plainly: Human tumor xenograft in athymic mice, MX-1 mammary (subrenal capsule). Conditions: for % tumor weight inhibition: Table IV, QD1-9, day 0 to day 11.
In data set [6] the test system is L1210 leukemia. Conditions: cited from earlier work; for increase in life span: literature values.
Data set [7] has as its system Herpes simplex type 1 (TK+), strain E-377. The data set is described as follows: Cytopathogenic inhibition test, HSV-1 TK+. The class given is cell-based. Conditions: for IC50: Human alphaherpesvirus 1, inhibition of virus-induced cytopathogenic effects, read-out: ID50 (the source's name); for IC50 / VR (virus rating): Vero cells, strain E-377. For orientation: Protection from cytopathic effect is a common read-out in antiviral testing.

In data set [8] the test system is Herpes simplex type 1 (TK-), strain HF. The data set is described as follows: microbe, parasite or virus in culture. The class given is cell-based.
Data set [9] has as its system Herpes simplex type 2, strain MS. Put plainly: Cytopathogenic inhibition test, HSV-2. It is filed as cell-based. To be noted: Vero cells, strain MS; for IC50: Human alphaherpesvirus 2, inhibition of virus-induced cytopathogenic effects, read-out: ID50 (the source's name).
Data set [10] concerns vaccinia virus (IHD strain). It is filed as in vivo, mouse (CD-I). Conditions: Ara-A 300 mg/kg, QD 1-7 subcutaneous; PBS control 45.8.
The test system of data set [11] is Vaccinia, strain Lederle CA. Put plainly: microbe, parasite or virus in culture. It is filed as cell-based.
The test system of a further data set is L1210 tumor cells. To be noted: literature; cited from earlier work.
A further data set relates to H.Ep.-2 cells. To be noted: literature; cited from earlier work.
A further data set has as its system adenosine deaminase. To be noted: literature; cited from earlier work.
The test system of data set [12] is quiescent normal cells; malignant cell lines. Conditions: subtoxic concentrations; literature; cited from earlier work.
Data set [13] has as its system Herpes simplex type 1 (TK-), strain HF. Conditions: literature; cited from earlier work.
Another data set concerns Rhinovirus 1A. Conditions: literature; cited from earlier work.
For another data set, the system named is influenza viruses. To be noted: literature; cited from earlier work.
A further data set has as its system several DNA viruses. Conditions: literature; cited from earlier work.
In a further data set the test system is two other RNA viruses. To be noted: literature; cited from earlier work.
The test system of data set [14] is Cytomegalovirus, strain AD 169. Put plainly: Cytomegalovirus (CMV) Yield Reduction Assay. The class given is cell-based.
Data set [15] has as its system Varicella-Zoster virus, isolate DM625. The data set is described as follows: Varicella-Zoster Virus (VZV) Plaque Reduction Assay. It is filed as cell-based. To be noted: Human alphaherpesvirus 3, 144 h, Huf cells. In general terms: Plaques are areas of infected cells; plaque reduction assays count them against a control.
Data set [16] deals with MRC5 (diploid human embryonic lung cells). The data set is described as follows: Toxicity to MRC5 host cells (gross cell morphology) in the CMV assay. Conditions: 320 μg/ml.
For a further data set, the system named is cells. To be noted: literature; cited from earlier work.
For data set [17], the system named is Janapese Encephalitis virus, strain Najayama. Put plainly: Antiviral test in vitro, Japanese encephalitis virus. The class given is cell-based, Japanese encephalitis virus; host Vero cells.
Data set [18] concerns Punta Toro virus, strain Adames. The data set is described as follows: microbe, parasite or virus in culture. It is filed as cell-based, Punta Toro virus; host Vero cells.
Data set [19] deals with Influenza (Hong Kong), strain A2 /Aichi/2/68. Put plainly: microbe, parasite or virus in culture. It is filed as cell-based, Influenza virus; host MDCK (Madin Darby canine kidney cells).
In data set [20] the test system is Yellow Fever virus, strain Asibi. Put plainly: microbe, parasite or virus in culture. The class given is cell-based, Yellow Fever virus; host Vero cells.
Data set [21] relates to tumors. Conditions: literature; cited from earlier work.

With `Nc1ccn([C@@H]2C=C(CO)[C@@H](O)[C@@H]2O)c(=O)n1`, the antitumor activity result in the data set on tumors [1] is “complete lack of antitumor activity”.
Take `Nc1nccc2c1ncn2[C@@H]1C[C@H](CO)[C@@H](O)[C@H]1O` [3-Deazaaristeromycin, 3-deazaaristeromycin, reference compound]: in data set [2], the “VR (virus rating)” value was 2.1 and 3.0. Also, the “inhibition of AdoHcy hydrolase” value in data set [3] is “very potent and specific inhibitor”. Besides, the phosphorylation and deamination entry in [4] was “resistance towards phosphorylation and deamination”.
As to `O=C1C=CN([C@@H]2O[C@H](CO)[C@@H](O)[C@H]2O)C(=O)C1` [3-Deazauridine, 3-deazauridine, reference compound], the “inhibition of CTP synthesis” value with CTP synthesase (result in words) was “powerful inhibitors of CTP synthesis”. The “% ILS” value worked out at 72% in the data set with L1210 leukemia [5] (3-Deazauridine 25 mg/kg); 61% in the data set on L1210 leukemia [5] (3-Deazauridine 50 mg/kg); 80% in the data set with L1210 leukemia [5] (3-Deazauridine 100 mg/kg); 5% in the data set with LOX Melanoma (3-Deazauridine 200 mg/kg); 4% with LOX Melanoma (3-Deazauridine 300 mg/kg). Further, in the data set with LOX Melanoma (in vivo), the “tumor burden at the end of treatment” value is given as “three-log10 increase in tumor burden”. The result in the data set on LOX Melanoma (result in words) and in the data set with MX-1 Mammary (result in words) was inactive. For the same compound, the “% tumor weight inhibition” value in the data set with MX-1 Mammary (3-Deazauridine 200 mg/kg) turned out to be 11%; in the data set with MX-1 Mammary (3-Deazauridine 300 mg/kg), 64%.
Take `Nc1nccc2c1ncn2[C@@H]1O[C@H](CO)[C@@H](O)[C@H]1O` [3-deazaadenosine]: in data set [4] (literature), the phosphorylation and deamination result was “resistance towards phosphorylation and deamination”.
Regarding `Nc1ccn(C2CC(CO)C(O)C2O)c(=O)n1` (stereo not drawn) ["ara"-analogue], the “increase in life span” value in the data set on L1210 leukemia [6] is listed as 104%. For the same compound, the “activity against L1210 leukemia” value with L1210 leukemia [6] (literature, J. Pharm. Chem., 68, 668 (1979)) is “activity”.
Take `Nc1nc2c(ncn2COCCO)c(=O)[nH]1` [Acyclovir]: the IC50 in data set [7] turned out to be 0.7 µg/mL (≈ 3.11 µM); in [9], 5.3 µg/mL (≈ 23.5 µM). The entries for the “VR (virus rating)” value in data set [7] and in data set [9] were 6.7 and 4.5, respectively. Moreover, the antiviral activity entry in [7] (result in words) is “more active that CPE-C”; in [8] (result in words), “inactive”.
For `Nc1ncnc2c1ncn2[C@@H]1O[C@H](CO)[C@@H](O)[C@@H]1O` [Ara-A, arabinosyl adenine, reference compound], in [10], the “Pox Count (mean value, 20 mice)” value came out at 2.8. In addition, the IC50 in data set [7] turned out to be 13.6 µg/mL (≈ 50.9 µM); in [8] (Human alphaherpesvirus 1, Vero, in Chlorocebus sabaeus, read-out: ID50, Vero cells, strain HF, inhibition of virus-induced cytopathogenic effects, two determinations) it was 2.1 µg/mL (≈ 7.86 µM); in data set [9] it was 49.9 µg/mL (≈ 187 µM); in [11] (Orthopoxvirus vaccinia, Vero, in Chlorocebus sabaeus, read-out: ID50) it was 9.8 µg/mL (≈ 36.7 µM). Further, the “VR (virus rating)” value is 1.8 in data set [7]; 3.3 and 2.9 in [8] (Vero cells, strain HF, two determinations); 1.3 in data set [9]; 3.1 in data set [11] (Vero cells, strain Lederle CA).
In the case of `Nc1ncnc2c1ncn2[C@@H]1C[C@H](CO)[C@@H](O)[C@H]1O` [C-Ado], the “activity in the in vivo mouse L1210 model” value in the data set on L1210 leukemia [6] (literature) is on record as “inactivity in the in vivo mouse L1210 model system”. Also, in the data set on L1210 tumor cells, the cytotoxicity entry is “highly cytotoxic”. In addition, the cytotoxicity result in the data set on H.Ep.-2 cells is “highly cytotoxic”. Also, in the data set with adenosine deaminase, the “affinity for adenosine deaminase relative to adenosine” value is reported as “a hundredfold lower”. Moreover, in [12], the “effect on malignant cell lines” value is listed as “inhibited growth” and the “effect on quiescent normal cells” value is “induced cell proliferation”.
For `Nc1ccn([C@@H]2C[C@H](CO)[C@@H](O)[C@H]2O)c(=O)n1` [Carbodine], in the data set on L1210 leukemia [6], the “increase in life span” value is 82%. Besides, in data set [13], the “potency against HSV-1 TK- vs TK+” value was “more potent against a strain of the HSV-1 virus deficient in its ability to induce thymidine kinase”. For the same compound, the antiviral activity entry is given as “Slight carbodine activity” in the data set on Rhinovirus 1A, “very effective” in the data set with influenza viruses, “Good activity” in the data set on several DNA viruses and “Slight carbodine activity” in the data set on two other RNA viruses.
In general, inhibition refers to the change of the read-out against control, counted positive when it falls. A lower inhibition goes with little suppression. With `Nc1nc2c(ncn2COC(CO)CO)c(=O)[nH]1` [DHPG, 9(1,3-Dihydroxy-2-propoxymethyl)guanine, reference compound], the log reduction at 1 µg/mL in [14] (Human betaherpesvirus 5, 144 h, 1.0 μg/ml, MRC5 cells, read-out: Reduction in Virus Yield) worked out at 1.1. For the same compound, the log reduction at 10 µg/mL in data set [14] (Human betaherpesvirus 5, 144 h, 10 μg/ml, MRC5 cells, read-out: Reduction in Virus Yield) amounted to 3.8. Moreover, the log reduction at 32 µg/mL in data set [14] (Human betaherpesvirus 5, 144 h, 32 μg/ml, MRC5 cells, read-out: Reduction in Virus Yield) was 5.3. Moreover, the log reduction at 100 µg/mL in data set [14] (Human betaherpesvirus 5, 144 h, 100 μg/ml, MRC5 cells, read-out: Reduction in Virus Yield) was found to be 5.3. Moreover, in data set [14] (Human betaherpesvirus 5, 144 h, 320 μg/ml, MRC5 cells, read-out: Reduction in Virus Yield), the log reduction at 320 µg/mL came out at 5.3. For the same compound, in data set [14] (result in words), the antiviral activity result is listed as “superior”. The compound also returned an inhibition at 1 µg/mL in data set [15] (1.0 μg/ml) of 44%. This compound also registered an inhibition at 3.2 µg/mL in [15] (3.2 μg/ml) of 46%. In data set [15] (10 μg/ml), this compound displayed an inhibition at 10 µg/mL of 69%. The compound also came in with an inhibition at 32 µg/mL in data set [15] (32 μg/ml) of 85%. In data set [15] (100 μg/ml), this compound showed an inhibition at 100 µg/mL of 100%. In addition, in data set [15] (320 μg/ml), testing at 320 µg/mL gave an inhibition of 100%. In addition, in [16], the “Host cell toxicity (gross cell morphology)” value is recorded as “Very slightly toxic”.
For `Nc1ncnc2c1ncn2[C@@H]1C=C(CO)[C@@H](O)[C@H]1O` [Neplanocin A, 9[(1'R,2'S,3'R)-4'-Hydroxymethyl-2',3'dihydroxy-4 cyclopenten-1'-yl]adenine], the “inhibition of AdoHcy hydrolase” value in data set [3] was “potent inhibitor”. Besides, the “side effects including cytotoxicity” value with cells was “multiplicity of side effects including cytotoxicity”. Moreover, the phosphorylation and deamination entry in [4] (literature) is recorded as “readily phosphorylated”.
Turning to `NC(=O)c1ncn([C@@H]2O[C@H](CO)[C@@H](O)[C@H]2O)n1` [Ribavirin, reference compound], the IC50 in [17] (Japanese encephalitis virus, Vero, read-out: ID50) is 3 µg/mL (≈ 12.3 µM); in data set [18] (Punta Toro virus, Vero, read-out: ID50), 20.1 µg/mL (≈ 82.3 µM); in data set [19] (MDCK, in Canis lupus familiaris, read-out: ID50), 18.7 µg/mL (≈ 76.6 µM). The “VR (virus rating)” value is recorded as 2.4 in data set [17] (Vero cells, strain Najayama); 1.8 in data set [18]; 3.6 in data set [19].
As for `c1c[se]cn1` [Selenazole, reference compound], in data set [20] (Vero cells, strain Asibi), the “VR (virus rating)” value is on record as 2.4. In data set [20] (Yellow fever virus, Vero, read-out: ID50), the IC50 stood at 1.8 µg/mL (≈ 13.6 µM). In addition, the “TI (therapeutic index)” value in data set [20] (minimum toxic drug concentration / ID50, Vero cells) came to 0.6.
Regarding `Nc1ccn([C@@H]2O[C@H](CO)[C@@H](O)[C@@H]2O)c(=O)n1` [ara-C, cytosine arabinoside], the “activity against human and animal tumors” value in the data set with tumors [21] is “well-known activity”.
As to `Nc1ccn([C@@H]2C=C(COP(=O)(O)OP(=O)(O)OP(=O)(O)O)[C@@H](O)[C@H]2O)c(=O)n1` [triphosphate metabolite of CPE-C], the “inhibition of CTP-synthesase” value in the data set on CTP synthesase (triphosphate isolated from L1210 cell extracts) is “responsible for the inhibition of CTP-synthesase”.
